Measured values published in ChEMBL document CHEMBL3832026.
Where “and” joins values, the source holds several entries; their conditions need not be identical. Equal values may be shown once.

Assays:
Type in all cases: ADME, organism-based
[1] = (§1) Mean pharmacokinetic parameters of Mycophenolic acid following multiple dose administration of 720 mg Mycophenolic acid delayed-release tablets to adult renal transplant patients on Cyclosporine, USP MODIFIED based immunosuppression; set-up: dose 720 mg, route oral; settings: human, in vivo, po, 720 mg
[2] = tested on: Homo sapiens; test: as §1; set-up: dose 720 mg, route oral; settings: in vivo, po
[3] = (§2) Mean pharmacokinetic parameters of Mycophenolic acid following single oral administration of Mycophenolic acid delayed-release tablets to adult or pediatric (age range 5 to 16 years) renal transplant patients on Cyclosporine, USP MODIFIED based immunosuppression; set-up: dose 450 mg/m-2, dose 1 g, dose 720 mg, route oral; settings: human, in vivo
[4] = tested on: Homo sapiens; test: as §2; set-up: dose 450 mg/m-2, dose 1 g, dose 720 mg, route oral; settings: in vivo
[5] = (§3) Pharmacokinetic parameters of Mycophenolic acid following administration of 360 to 2160 mg Mycophenolic acid delayed-release tablets to renal transplant patients on Cyclosporine, USP MODIFIED based immunosuppression.; settings: human, in vivo, po
[6] = tested on: Homo sapiens; test: as §3; settings: in vivo, po

- Tmax [1]: 2 h
- AUC(0-12) [2]: 57.4 mcg.hr/mL [middle of 6 runs]
- Cmax [2]: 26.2 mcg/mL [middle of 5 runs]
- Tmax [2]: 1.5 h and 2.5 h and 1.8 h
- Cmax [3]: 36300 ng/mL
- Tmax [3]: 2.5 h
- AUC ([3]; dosed compound id 90, dosed compound name MYCOPHENOLATE MOFETIL, regimen Single dose, tissue Plasma, read-out: AUC(0-48)): 42700 ng·h/mL
- AUC ([3]; read-out: AUC(0 to inf)): 74300 ng·h/mL
- AUC(0 to inf) [4]: 66500 ng·h/mL
- Cmax [4]: 26100 ng/mL
- Tmax [4]: 2 h
- AUC(0-48) ([4]; dosed compound id 90, dosed compound name MYCOPHENOLATE MOFETIL, regimen Single dose, tissue Plasma): 48300 ng·h/mL
- CL/F [5]: 140 mL/min
- Vd [6]: 112 L
- Vss [6]: 54 L
SMILES: COc1c(C)c2c(c(O)c1C/C=C(\C)CCC(=O)O)C(=O)OC2 [MYCOPHENOLIC ACID]
